Where two headings read alike, the source gives them in different places.
Molecular target: LSD-1 enzyme (Homo sapiens (Human), UniProt O60341)
Test: LANCE LSD1/KDM1A demethylase assay (LSD1 histone demethylase biochemical assay)
Method: Example A: LSD1 Histone Demethylase Biochemical Assay
LANCE LSD1/KDM1A demethylase assay—10 μL of 1 nM LSD-1 enzyme (ENZO BML-SE544-0050) in the assay buffer (50 mM Tris, pH 7.5, 0.01% Tween-20, 25 mM NaCl, 5 mM DTT) were preincubated for 1 hour at 25° C. with 0.8 μL compound/DMSO dotted in black 384 well polystyrene plates. […] Reactions were stopped by addition of 10 μL 1× LANCE Detection Buffer (PerkinElmer CR97-100) supplemented with 1.5 nM Eu-anti-unmodified H3K4 Antibody (PerkinElmer TRF0404), and 225 nM LANCE Ultra Streptavidin (PerkinElmer TRF102) along with 0.9 mM Tranylcypromine-HCl (Millipore 616431). After stopping the reactions plates were incubated for 30 minutes and read on a PHERAstar FS plate reader (BMG Labtech).

[1] = 1 nM LSD-1 enzyme, 1 hour preincubation at 25° C., Biotin-labeled Histone H3 peptide substrate, read-out: IC50

Cc1ccc(-c2c(-c3ccc(C#N)cc3)nc(N(C)C(=O)N3CC[C@@H](N(C)C)C3)c3nccn23)cc1 [Example 21, (3R)—N-[6-(4-cyanophenyl)-5-(4-methylphenyl)imidazo[1,2-a]pyrazin-8-yl]-3-(dimethylamino)-N-methylpyrrolidine-1-carboxamide]
IC50: 50 to 500 nM

CN1CCC[C@@H](COc2nc(-c3ccc(C#N)cc3)c(-c3ccc4c(c3)CC(O)C4)n3ccnc23)C1 (single isomer, unassigned) [78 (peak 1)]
IC50 [1]: < 50 nM

Cc1ccc(-c2c(-c3ccc(C#N)cc3)nc(OC[C@@H]3CCCN(C)C3)c3nccn23)cc1CN1CCN(S(C)(=O)=O)CC1 [Example 71, 4-(5-(4-methyl-3-{[4-(methylsulfonyl)piperazin-1-yl]methyl}phenyl)-8-{[(3R)-1-methylpiperidin-3-yl]methoxy}imidazo[1,2-a]pyrazin-6-yl)benzonitrile]
IC50: 50 to 500 nM

Cc1ccc(-c2c(-c3ccc(C#N)cc3)nc(NCCC3CCCN3C)c3nccn23)cc1 (stereo not shown) [Example 16, 4-(5-(4-methylphenyl)-8-{[2-(1-methylpyrrolidin-2-yl)ethyl]amino}imidazo[1,2-a]pyrazin-6-yl)benzonitrile]
IC50: 50 to 500 nM

Cc1ccc(-c2c(-c3ccc(C#N)cc3)nc(N(C)C(=O)N3CC[C@H](N(C)C)C3)c3nccn23)cc1 [Example 22, (3S)—N-[6-(4-cyanophenyl)-5-(4-methylphenyl)imidazo[1,2-a]pyrazin-8-yl]-3-(dimethylamino)-N-methylpyrrolidine-1-carboxamide]
IC50: 500 to 1000 nM

CN1CC[C@@H](COc2nc(-c3ccc(C#N)cc3)c(-c3ccc(N(C)C)nc3)n3ccnc23)C1 [Example 32, 4-(5-[6-(dimethylamino)pyridin-3-yl]-8-{[(3R)-1-methylpyrrolidin-3-yl]methoxy}imidazo[1,2-a]pyrazin-6-yl)benzonitrile]
IC50: 50 to 500 nM

Cc1ccc(-c2c(-c3ccc(C#N)cc3)nc(NCCc3csc(N)n3)c3nccn23)cc1 [Example 23, 4-[8-{[2-(2-amino-1,3-thiazol-4-yl)ethyl]amino}-5-(4-methylphenyl)imidazo[1,2-a]pyrazin-6-yl]benzonitrile]
IC50: 50 to 500 nM

CN1CCC[C@@H](COc2nc(-c3ccc(C#N)cc3)c(-c3ccc4c(c3)CC(O)C4)n3ccnc23)C1 (single isomer, unassigned) [78 (peak 2)]
IC50 [1]: < 50 nM

Cc1ncc(-c2c(-c3ccc(C#N)cc3)nc(OC[C@@H]3CCCN(C)C3)c3nccn23)cc1C#N [Example 117, 5-(6-(4-cyanophenyl)-8-{[(3R)-1-methylpiperidin-3-yl]methoxy}imidazo[1,2-a]pyrazin-5-yl)-2-methylnicotinonitrile]
IC50: 50 to 500 nM

Cc1ccc(-c2c(-c3ccc(C#N)cc3)nc(C(=O)NCC3CNC3)c3nccn23)cc1 [Example 24, N-(azetidin-3-ylmethyl)-6-(4-cyanophenyl)-5-(4-methylphenyl)imidazo[1,2-a]pyrazine-8-carboxamide]
IC50: 50 to 500 nM

CN1CCC[C@@H](COc2nc(-c3ccc(C#N)cc3)c(-c3ccc(N(C)C)nc3)n3ccnc23)C1 [Example 51, 4-(5-[6-(dimethylamino)pyridin-3-yl]-8-{[(3R)-1-methylpiperidin-3-yl]methoxy}imidazo[1,2-a]pyrazin-6-yl)benzonitrile]
IC50: 50 to 500 nM

CN1CCC[C@@H](COc2nc(-c3ccc(C#N)cc3)c(-c3ccc(CN4CCOCC4)c(F)c3)n3ccnc23)C1 [Example 82, 4-(5-[3-fluoro-4-(morpholin-4-ylmethyl)phenyl]-8-{[(3R)-1-methylpiperidin-3-yl]methoxy}imidazo[1,2-a]pyrazin-6-yl)benzonitrile]
IC50: 50 to 500 nM

COc1cc(-c2c(-c3ccc(C#N)cc3)nc(N3CCC(N(C)C)CC3)c3nccn23)cnc1C [Example 116, 4-[8-[4-(dimethylamino)piperidin-1-yl]-5-(5-methoxy-6-methylpyridin-3-yl)imidazo[1,2-a]pyrazin-6-yl]benzonitrile]
IC50: 50 to 500 nM

Reference: patent US9695180B2 (Incyte Corporation, priority 2014, dated 2017)
